In this experiment the target is T1, delF508-CFTR (Homo sapiens, UniProt P13569, DEL508-508).
T1 construct: expressed in transfected cells
As to the kind of experiment: Measurement of delF508-CFTR-HRP surface expression in CFBE41o- cells. Type of experiment: cell-based. The note with it: for EC50: HRP-tagged delF508-CFTR in CFBE41o- cells, 24 h with compound, luminescence, 10-point curve, top 10 μM; for Emax: efficacy relative to reference compound 3-(6-(1-(2,2-difluorobenzo[d][1,3]dioxol-5-yl)cyclopropane-1-carboxamido)-3-methylpyridin-2-yl)benzoic acid, CFBE41o- cells, 24 h, read-out: DelF508-CFTR-HRP Amax %. Summed up:
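CFBE41o- cells stably expressing delF508-CFTR with HRP in the fourth extracellular loop, induced with 500 ng/mL doxycycline for 48 h, then treated with compound (top 10 μM, 10-point 3-fold) for 24 h at 37° C. Surface HRP detected by luminescence with cell-impermeant substrate; EC50 from logistic fit of triplicates, normalized to lowest concentration.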

One may read the EC50 as the concentration at which the effect is half-maximal.

The structures appear in SMILES notation.

T1 sequence (P13569 with tags, fused parts or gaps DEL508-508): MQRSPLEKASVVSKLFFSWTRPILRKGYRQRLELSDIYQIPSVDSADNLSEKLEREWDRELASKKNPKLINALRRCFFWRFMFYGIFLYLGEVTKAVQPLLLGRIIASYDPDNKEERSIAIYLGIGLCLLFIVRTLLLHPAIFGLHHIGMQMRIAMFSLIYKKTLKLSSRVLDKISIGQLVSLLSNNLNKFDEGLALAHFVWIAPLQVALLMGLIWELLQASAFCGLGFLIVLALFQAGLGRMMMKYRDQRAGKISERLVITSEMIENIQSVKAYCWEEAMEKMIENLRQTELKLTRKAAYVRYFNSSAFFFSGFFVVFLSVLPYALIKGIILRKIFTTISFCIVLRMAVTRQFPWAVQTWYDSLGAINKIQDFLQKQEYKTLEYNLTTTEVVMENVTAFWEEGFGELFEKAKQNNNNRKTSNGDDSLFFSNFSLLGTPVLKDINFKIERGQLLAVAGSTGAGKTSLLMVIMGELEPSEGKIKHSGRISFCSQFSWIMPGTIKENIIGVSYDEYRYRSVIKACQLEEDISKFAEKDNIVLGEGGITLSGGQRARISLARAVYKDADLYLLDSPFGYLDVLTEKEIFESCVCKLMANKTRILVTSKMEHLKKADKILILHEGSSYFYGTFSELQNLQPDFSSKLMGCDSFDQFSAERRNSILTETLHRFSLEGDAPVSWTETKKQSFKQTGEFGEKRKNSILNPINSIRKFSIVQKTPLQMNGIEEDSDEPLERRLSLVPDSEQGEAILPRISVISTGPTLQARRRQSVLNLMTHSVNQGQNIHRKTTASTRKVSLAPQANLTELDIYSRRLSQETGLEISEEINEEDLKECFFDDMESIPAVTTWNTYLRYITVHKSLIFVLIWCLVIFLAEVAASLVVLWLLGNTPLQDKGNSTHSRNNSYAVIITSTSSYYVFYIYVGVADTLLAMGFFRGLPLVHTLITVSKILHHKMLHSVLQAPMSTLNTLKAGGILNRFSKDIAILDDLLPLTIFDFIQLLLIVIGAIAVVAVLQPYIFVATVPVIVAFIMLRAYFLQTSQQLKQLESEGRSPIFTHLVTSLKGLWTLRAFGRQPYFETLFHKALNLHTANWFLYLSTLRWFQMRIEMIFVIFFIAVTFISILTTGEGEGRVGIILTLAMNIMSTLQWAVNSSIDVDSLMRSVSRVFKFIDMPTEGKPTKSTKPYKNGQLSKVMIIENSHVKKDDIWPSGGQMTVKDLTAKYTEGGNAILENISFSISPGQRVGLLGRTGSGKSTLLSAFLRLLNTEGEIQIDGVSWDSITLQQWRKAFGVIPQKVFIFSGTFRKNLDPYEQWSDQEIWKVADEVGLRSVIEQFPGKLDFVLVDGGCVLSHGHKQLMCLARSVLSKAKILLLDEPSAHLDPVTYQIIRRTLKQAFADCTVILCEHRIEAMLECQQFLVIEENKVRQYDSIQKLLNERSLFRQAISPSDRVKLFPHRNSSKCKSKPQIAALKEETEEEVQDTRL

As to `CCc1ccc(F)cc1-c1nc(NS(=O)(=O)c2cccc(N(CCC(=O)O)CC3CC3)n2)ccc1C(F)(F)F` [Compound 116, 3-((cyclopropylmethyl)(6-(N-(6-(2-ethyl-5-fluorophenyl)-5-(trifluoromethyl)pyridin-2-yl)sulfamoyl)pyridin-2-yl)amino)propanoic Acid], the EC50 stood at 1210 nM.

For the compound `Cc1ccccc1-c1nc(NS(=O)(=O)c2cccc(SCCC(=O)O)n2)ccc1C(F)(F)F` [Compound 117, 3-((6-(N-(6-(o-tolyl)-5-(trifluoromethyl)pyridin-2-yl)sulfamoyl)pyridin-2-yl)thio)propanoic Acid], the EC50 came out at 2430 nM and the Emax is 196%. Take `CCc1ccc(F)cc1-c1nc(NS(=O)(=O)c2cccc(N(CCC(=O)O)C(C)C)n2)ccc1C(F)(F)F` [Compound 119, 3-((6-(N-(6-(2-ethyl-5-fluorophenyl)-5-(trifluoromethyl)pyridin-2-yl)sulfamoyl)pyridin-2-yl)(isopropyl)amino)propanoic Acid]: the EC50 was 1410 nM. Turning to `CCc1ccccc1-c1nc(NS(=O)(=O)c2cccc(OC3CCC(C(=O)O)CC3)n2)ccc1C(F)(F)F` (centres unmarked) [Compound 120, 4-((6-(N-(6-(2-ethylphenyl)-5-(trifluoromethyl)pyridin-2-yl)sulfamoyl)pyridin-2-yl)nxy)cyclohexane-1-carboxylic Acid], the EC50 came to 1390 nM and the Emax amounted to 330%.

With `Cc1ccccc1-c1nc(NS(=O)(=O)c2cccc(OCCC(=O)O)n2)ccc1C(F)(F)F` [Compound 121, 3-((6-(N-(6-(o-tolyl)-5-(trifluoromethyl)pyridin-2-yl)sulfamoyl)pyridin-2-yl)nxy)propanoic Acid], the EC50 is 3280 nM and the Emax turned out to be 167%. In the case of `Cc1cccc(C)c1-c1nc(NS(=O)(=O)c2cccc(N3CCC[C@H]3c3nnn[nH]3)n2)ccc1Cl` [Compound 124, (S)-6-(2-(1H-tetrazol-5-yl)pyrrolidin-1-yl)-N-(5-chloro-6-(2,6-dimethylphenyl)pyridin-2-yl)pyridine-2-sulfonamide], the concentration giving a half-maximal response (EC50) was found to be 1730 nM and the Emax stood at 297%. For `Cc1ccccc1-c1nc(NS(=O)(=O)c2cccc(N(C)CC3(C(=O)O)CCCC3)n2)ccc1C(F)(F)F` [Compound 130, 1-((methyl(6-(N-(6-(o-tolyl)-5-(trifluoromethyl)pyridin-2-yl)sulfamoyl)pyridin-2-yl)amino)methyl)cyclopentane-1-carboxylic Acid] the same measures were 2060 nM and 403%.

Turning to `CCC(NC(=O)C1CCC(Nc2cccc(S(=O)(=O)Nc3ccc(Cl)c(-c4ccccc4C)n3)n2)CC1)C(=O)O` (centres unmarked) [Compound 136, 2-(4-((6-(N-(5-chloro-6-(o-tolyl)pyridin-2-yl)sulfamoyl)pyridin-2-yl)amino)cyclohexane-1-carboxamido)butanoic Acid], the EC50 was 2310 nM and the Emax was 952%. In the case of `Cc1ccccc1-c1nc(NS(=O)(=O)c2cccc(N(C)CC3(C(=O)O)CCC3)n2)ccc1C(F)(F)F` [Compound 137, 1-((methyl(6-(N-(6-(o-tolyl)-5-(trifluoromethyl)pyridin-2-yl)sulfamoyl)pyridin-2-yl)amino)methyl)cyclobutane-1-carboxylic Acid], the EC50 was determined as 2030 nM. As for `Cc1ccc(F)cc1-c1nc(NS(=O)(=O)c2cccc(N(C)CC3(C(=O)O)CCOCC3)n2)ccc1C(F)(F)F` [Compound 138, 4-(((6-(N-(6-(5-fluoro-2-methylphenyl)-5-(trifluoromethyl)pyridin-2-yl)sulfamoyl)pyridin-2-yl)(methyl)amino)methyl)tetrahydro-2H-pyran-4-carboxylic Acid], the EC50 came out at 1980 nM and the Emax worked out at 463%. Turning to `Cc1ccc(F)cc1-c1nc(NS(=O)(=O)c2cccc(N(C)CC3(C(=O)O)CCC3)n2)ccc1C(F)(F)F` [Compound 139, 1-(((6-(N-(6-(5-fluoro-2-methylphenyl)-5-(trifluoromethyl)pyridin-2-yl)sulfamoyl)pyridin-2-yl)(methyl)amino)methyl)cyclobutane-1-carboxylic Acid], the EC50 turned out to be 1120 nM. On to `CCN(CCC(=O)O)c1cc(S(=O)(=O)Nc2ccc(Cl)c(-c3c(C)cccc3C)n2)ccn1` [Compound 140, 3-((4-(N-(5-chloro-6-(2,6-dimethylphenyl)pyridin-2-yl)sulfamoyl)pyridin-2-yl)(ethyl)amino)propanoic Acid], for which the EC50 is 2920 nM and the Emax was determined as 209%. In the same order, the values of `CCC(CC(=O)O)Nc1cc(S(=O)(=O)Nc2ccc(Cl)c(-c3c(C)cccc3C)n2)ccn1` (centres unmarked) [Compound 141] are 3940 nM and 291%. `Cc1cccc(C)c1-c1nc(NS(=O)(=O)c2ccnc(NC(C)CC(=O)O)c2)ccc1Cl` (centres unmarked) [Compound 142, 3-((4-(N-(5-chloro-6-(2,6-dimethylphenyl)pyridin-2-yl)sulfamoyl)pyridin-2-yl)amino)butanoic Acid]: the 50% effective concentration (EC50) amounted to 4460 nM and the Emax was found to be 84%. Take `Cc1ccccc1-c1nc(NS(=O)(=O)c2cccc(NC(C(=O)O)C34CC5CC(CC(C5)C3)C4)n2)ccc1C(F)(F)F` (centres unmarked) [Compound 143, 2-(adamantan-1-yl)-2-((6-(N-(6-(o-tolyl)-5-(trifluoromethyl)pyridin-2-yl)sulfamoyl)pyridin-2-yl)amino)acetic Acid]: the EC50 came to 2390 nM. Turning to `CCN(CCC(=O)O)c1cc(S(=O)(=O)Nc2ccc(Cl)c(-c3cc(F)ccc3C)n2)ccn1` [Compound 144, 3-((4-(N-(5-chloro-6-(5-fluoro-2-methylphenyl)pyridin-2-yl)sulfamoyl)pyridin-2-yl)(ethyl)amino)propanoic Acid], the 50% effective concentration (EC50) came out at 4550 nM and the Emax stood at 52%.

For the compound `CCN(CCC(=O)O)c1cccc(S(=O)(=O)Nc2ccc(C(F)(F)F)c(-c3c(C)cccc3C)n2)n1` [Compound 145, 3-((6-(N-(6-(2,6-dimethylphenyl)-5-(trifluoromethyl)pyridin-2-yl)sulfamoyl)pyridin-2-yl)(ethyl)amino)propanoic Acid], the EC50 was 1830 nM. On to `Cc1ccccc1-c1nc(NS(=O)(=O)c2cccc(NCC(=O)O)n2)ccc1C(F)(F)F` [Compound 146, (6-(N-(6-(o-tolyl)-5-(trifluoromethyl)pyridin-2-yl)sulfamoyl)pyridin-2-yl)glycine], for which the EC50 was 2500 nM and the Emax turned out to be 60%. In the same order, the values of `Cc1ccccc1-c1nc(NS(=O)(=O)c2cccc(N(CCC(=O)O)C3CCC3)n2)ccc1C(F)(F)F` [Compound 147, 3-(cyclobutyl(6-(N-(6-(o-tolyl)-5-(trifluoromethyl)pyridin-2-yl)sulfamoyl)pyridin-2-yl)amino)propanoic acid] are 1150 nM and 802%. In the case of `Cc1ccccc1-c1nc(NS(=O)(=O)c2cccc(N(CCC(=O)O)CCC(F)(F)F)n2)ccc1C(F)(F)F` [Compound 150, 3-((6-(N-(6-(o-tolyl)-5-(trifluoromethyl)pyridin-2-yl)sulfamoyl)pyridin-2-yl)(3,3,3-trifluoropropyl)amino)propanoic Acid], the EC50 came to 1670 nM. In the case of `Cc1ccc(F)cc1-c1nc(NS(=O)(=O)c2cccc(N(CCC(=O)O)CCC(F)(F)F)n2)ccc1C(F)(F)F` [Compound 151, 3-((6-(N-(6-(5-fluoro-2-methylphenyl)-5-(trifluoromethyl)pyridin-2-yl)sulfamoyl)pyridin-2-yl)(3,3,3-trifluoropropyl)amino)propanoic Acid], the EC50 was 1900 nM. For the compound `CCCCN(CCC(=O)O)c1cccc(S(=O)(=O)Nc2ccc(C(F)(F)F)c(-c3ccccc3C)n2)n1` [Compound 152, 3-(butyl(6-(N-(6-(o-tolyl)-5-(trifluoromethyl)pyridin-2-yl)sulfamoyl)pyridin-2-yl)amino)propanoic Acid], the concentration giving a half-maximal response (EC50) came to 780 nM and the Emax was 641%. Take `CCCCN(CCC(=O)O)c1cccc(S(=O)(=O)Nc2ccc(C(F)(F)F)c(-c3cc(F)ccc3C)n2)n1` [Compound 153, 3-(butyl(6-(N-(6-(5-fluoro-2-methylphenyl)-5-(trifluoromethyl)pyridin-2-yl)sulfamoyl)pyridin-2-yl)amino)propanoic Acid]: the EC50 came to 820 nM and the Emax turned out to be 770%. In the same order, the values of `Cc1ccccc1-c1nc(NS(=O)(=O)c2cccc(N(CCCC(=O)O)CC(C)C)n2)ccc1Cl` [Compound 154, 4-((6-(N-(5-chloro-6-(o-tolyl)pyridin-2-yl)sulfamoyl)pyridin-2-yl)(isobutyl)amino)butanoic Acid] are 930 nM and 686%.

`Cc1cccc(C)c1-c1nc(NS(=O)(=O)c2cccc(N(CCCC(=O)O)CC(C)C)n2)ccc1Cl` [Compound 155, 4-((6-(N-(5-chloro-6-(2,6-dimethylphenyl)pyridin-2-yl)sulfamoyl)pyridin-2-yl)(isobutyl)amino)butanoic Acid]: the concentration giving a half-maximal response (EC50) was 670 nM and the Emax is 699%. For `COCCN(CCCC(=O)O)c1cccc(S(=O)(=O)Nc2ccc(C(F)(F)F)c(-c3ccccc3C)n2)n1` [Compound 158, 4-((2-methoxyethyl)(6-(N-(6-(o-tolyl)-5-(trifluoromethyl)pyridin-2-yl)sulfamoyl)pyridin-2-yl)amino)butanoic Acid] the same measures were 1810 nM and 839%.

These data come from patent US20220127247A1, “N-(PYRIDIN-2-YL)PYRIDINE-SULFONAMIDE DERIVATIVES AND THEIR USE IN THE TREATMENT OF DISEASE” (NOVARTIS AG, priority 2019, published 2022).
